Assay results as given in ChEMBL document CHEMBL5154691, “Discovery of novel verinurad analogs as dual inhibitors of URAT1 and GLUT9 with improved Druggability for the treatment of hyperuricemia” (Eur J Med Chem, 2022).

Experiments:
[1] = biological target: T1, Solute carrier family 22 member 6 (Homo sapiens, UniProt Q4U2R8); assay: Inhibition of OAT1 (unknown origin) expressed in HEK293 cells assessed as inhibition of 6-CFL uptake preincubated for 30 mins followed by incubation with 6-CFL and measured after 15 mins by fluorescence based analysis; assay type: toxicity, cell-based
T1 sequence (Q4U2R8 whole entry): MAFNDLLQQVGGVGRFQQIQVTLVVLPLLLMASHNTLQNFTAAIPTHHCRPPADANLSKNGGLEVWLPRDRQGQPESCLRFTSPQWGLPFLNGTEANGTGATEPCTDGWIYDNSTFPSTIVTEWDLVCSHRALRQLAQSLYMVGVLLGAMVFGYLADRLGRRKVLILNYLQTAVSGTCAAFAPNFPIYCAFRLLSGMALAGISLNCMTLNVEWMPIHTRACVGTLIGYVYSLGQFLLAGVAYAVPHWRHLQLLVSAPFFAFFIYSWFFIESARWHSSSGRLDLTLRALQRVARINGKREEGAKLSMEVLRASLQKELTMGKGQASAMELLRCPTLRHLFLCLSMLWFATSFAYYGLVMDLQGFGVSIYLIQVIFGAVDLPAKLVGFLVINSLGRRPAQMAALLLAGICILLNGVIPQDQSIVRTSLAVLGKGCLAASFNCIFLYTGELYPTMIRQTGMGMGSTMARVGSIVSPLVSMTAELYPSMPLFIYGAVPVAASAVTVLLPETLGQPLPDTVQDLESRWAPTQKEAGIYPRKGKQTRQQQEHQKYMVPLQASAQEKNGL

Mus musculus [2] = assay: Anti-hyperuricemic activity against xanthine and potassium oxonate-induced acute hyperuricemia Kunming mouse model assessed as serum uric acid concentration at 10 mg/kg, po measured after 3 hrs (reference value: 846.22 uM); assay type: functional
[3] = biological target: T2, Solute carrier family 22 member 12 (Homo sapiens, UniProt Q96S37); assay: Inhibition of URAT1 (unknown origin)-mediated 14C-uric acid uptake expressed in HEK293 cells using 14C-uric acid as substrate preincubated for 30 mins followed by substrate addition and measured after 15 mins by liquid scintillation counting analysis; assay type: cell-based
T2 sequence (Q96S37 whole entry): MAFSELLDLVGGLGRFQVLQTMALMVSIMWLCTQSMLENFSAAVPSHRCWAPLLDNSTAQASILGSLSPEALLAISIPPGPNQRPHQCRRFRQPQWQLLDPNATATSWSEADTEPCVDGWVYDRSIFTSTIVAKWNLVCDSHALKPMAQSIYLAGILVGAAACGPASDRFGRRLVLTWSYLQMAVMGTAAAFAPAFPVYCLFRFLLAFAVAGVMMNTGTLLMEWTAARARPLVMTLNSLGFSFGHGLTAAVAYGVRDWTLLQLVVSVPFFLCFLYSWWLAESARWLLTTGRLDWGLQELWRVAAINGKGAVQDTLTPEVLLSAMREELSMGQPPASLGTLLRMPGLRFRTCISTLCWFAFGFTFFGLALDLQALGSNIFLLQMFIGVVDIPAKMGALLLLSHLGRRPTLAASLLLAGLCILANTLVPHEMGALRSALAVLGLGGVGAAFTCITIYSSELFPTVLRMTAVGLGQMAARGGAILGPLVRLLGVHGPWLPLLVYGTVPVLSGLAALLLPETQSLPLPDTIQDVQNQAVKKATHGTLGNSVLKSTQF

[4] = Cmax in Sprague-Dawley rat at 5 mg/kg, iv measured upto 36 hrs by LC-MS/MS analysis; assay type: ADME, organism-based; design: time < 36 hrs, dose 5 mg/kg, route iv; settings: in vivo
[5] = Inhibition of URAT1 I481M mutant (unknown origin)-mediated 14C-uric acid uptake expressed in HEK293 cells using 14C-uric acid as substrate preincubated for 30 mins followed by substrate addition and measured after 15 mins by liquid scintillation counting analysis; assay type: cell-based; settings: Homo sapiens
[6] = Tmax in Sprague-Dawley rat at 5 mg/kg, po measured upto 36 hrs by LC-MS/MS analysis; assay type: ADME, organism-based; settings: in vivo
[7] = biological target: T3, Broad substrate specificity ATP-binding cassette transporter ABCG2 (Homo sapiens, UniProt Q9UNQ0); assay: Inhibition of ABCG2 (unknown origin) expressed in HEK293 cells membrane vesicles assessed as inhibition of ATP-induced 14C-uric acid uptake preincubated for 15 mins followed by incubation with ATP and substrate for 5 mins by liquid scintillation counting analysis; assay type: toxicity, cell membranes, Membrane vesicle
T3 sequence (Q9UNQ0 whole entry): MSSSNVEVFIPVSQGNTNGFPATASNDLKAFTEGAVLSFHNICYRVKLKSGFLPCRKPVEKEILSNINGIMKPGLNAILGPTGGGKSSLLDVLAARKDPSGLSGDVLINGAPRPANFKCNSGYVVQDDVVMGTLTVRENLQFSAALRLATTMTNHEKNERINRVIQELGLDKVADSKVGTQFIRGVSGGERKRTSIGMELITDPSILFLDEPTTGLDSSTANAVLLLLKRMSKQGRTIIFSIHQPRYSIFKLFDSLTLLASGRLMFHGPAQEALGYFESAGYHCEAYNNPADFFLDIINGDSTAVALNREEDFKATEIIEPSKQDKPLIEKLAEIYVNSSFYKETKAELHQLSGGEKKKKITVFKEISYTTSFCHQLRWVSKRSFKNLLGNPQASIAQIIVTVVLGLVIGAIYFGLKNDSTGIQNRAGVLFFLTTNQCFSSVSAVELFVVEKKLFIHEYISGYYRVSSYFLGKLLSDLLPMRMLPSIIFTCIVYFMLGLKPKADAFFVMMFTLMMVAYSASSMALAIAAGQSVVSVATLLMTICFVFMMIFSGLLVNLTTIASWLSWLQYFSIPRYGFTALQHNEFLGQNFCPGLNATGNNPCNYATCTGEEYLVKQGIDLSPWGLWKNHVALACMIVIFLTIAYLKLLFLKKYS

Mus musculus [8] = assay: Anti-hyperuricemic activity against xanthine and potassium oxonate-induced acute hyperuricemia Kunming mouse model assessed as increase in urine uric acid concentration at 10 mg/kg, po measured for 24 hrs; assay type: functional
[9] = Tmax in Sprague-Dawley rat at 5 mg/kg, iv measured upto 36 hrs by LC-MS/MS analysis; assay type: ADME, organism-based; settings: in vivo
[10] = Cmax in Sprague-Dawley rat at 5 mg/kg, po measured upto 36 hrs by LC-MS/MS analysis; assay type: ADME, organism-based; design: time < 36 hrs, dose 5 mg/kg, route po; settings: in vivo
[11] = Half life in Sprague-Dawley rat at 5 mg/kg, po measured upto 36 hrs by LC-MS/MS analysis; assay type: ADME, organism-based; settings: in vivo
[12] = Half life in Sprague-Dawley rat at 5 mg/kg, iv measured upto 36 hrs by LC-MS/MS analysis; assay type: ADME, organism-based; settings: in vivo
[13] = AUC (0 to infinity) in Sprague-Dawley rat at 5 mg/kg, po by LC-MS/MS analysis; assay type: ADME, organism-based; design: time infinity, dose 5 mg/kg, route po; settings: in vivo
[14] = AUC (0 to infinity) in Sprague-Dawley rat at 5 mg/kg, iv by LC-MS/MS analysis; assay type: ADME, organism-based; design: time infinity, dose 5 mg/kg, route iv; settings: in vivo
[15] = MRT (0 to infinity) in Sprague-Dawley rat at 5 mg/kg, po by LC-MS/MS analysis; assay type: ADME, organism-based; settings: in vivo
[16] = MRT (0 to infinity) in Sprague-Dawley rat at 5 mg/kg, iv by LC-MS/MS analysis; assay type: ADME, organism-based; settings: in vivo
[17] = Oral bioavailability in Sprague-Dawley rat at 5 mg/kg measured upto 36 hrs by LC-MS/MS analysis; assay type: ADME, organism-based; settings: in vivo
[18] = Cytotoxicity against human HK-2 cells assessed as reduction in cell viability incubated for 24 hrs by MTT assay; assay type: toxicity, cell-based
[19] = Cytotoxicity against human HK-2 cells assessed as reduction in cell viability incubated for 48 hrs by MTT assay; assay type: toxicity, cell-based
[20] = Inhibition of URAT1 R487K mutant (unknown origin)-mediated 14C-uric acid uptake expressed in HEK293 cells using 14C-uric acid as substrate preincubated for 30 mins followed by substrate addition and measured after 15 mins by liquid scintillation counting analysis; assay type: cell-based; settings: Homo sapiens
[21] = Inhibition of URAT1 R477K mutant (unknown origin)-mediated 14C-uric acid uptake expressed in HEK293 cells using 14C-uric acid as substrate preincubated for 30 mins followed by substrate addition and measured after 15 mins by liquid scintillation counting analysis; assay type: cell-based; settings: Homo sapiens
[22] = Inhibition of URAT1 F365Y mutant (unknown origin)-mediated 14C-uric acid uptake expressed in HEK293 cells using 14C-uric acid as substrate preincubated for 30 mins followed by substrate addition and measured after 15 mins by liquid scintillation counting analysis; assay type: cell-based; settings: Homo sapiens
[23] = Inhibition of URAT1 F358Y mutant (unknown origin)-mediated 14C-uric acid uptake expressed in HEK293 cells using 14C-uric acid as substrate preincubated for 30 mins followed by substrate addition and measured after 15 mins by liquid scintillation counting analysis; assay type: cell-based; settings: Homo sapiens
[24] = Inhibition of URAT1 F241Y mutant (unknown origin)-mediated 14C-uric acid uptake expressed in HEK293 cells using 14C-uric acid as substrate preincubated for 30 mins followed by substrate addition and measured after 15 mins by liquid scintillation counting analysis; assay type: cell-based; settings: Homo sapiens
[25] = Inhibition of URAT1 S35N mutant (unknown origin)-mediated 14C-uric acid uptake expressed in HEK293 cells using 14C-uric acid as substrate preincubated for 30 mins followed by substrate addition and measured after 15 mins by liquid scintillation counting analysis; assay type: cell-based; settings: Homo sapiens

IC50 [3]: 0.17 µM
Cmax [4]: 13400 ng/mL
IC50 [5]: 0.94 µM
Tmax [6]: 0.46 h
Tmax [9]: 5.4 min
Cmax [10]: 7210 ng/mL
half-life [11]: 4.01 h
half-life [12]: 3.49 h
AUC(0-inf) [13]: 4130 ng·h/mL
AUC(0-inf) [14]: 19700 ng·h/mL
MRT inf [15]: 4.05 h
MRT inf [16]: 3.46 h
bioavailability [17]: 21.5%
IC50 [20]: 0.11 µM
IC50 [21]: 1.24 µM
IC50 [22]: 5.01 µM
IC50 [23]: 0.24 µM
IC50 [24]: 2.14 µM
IC50 [25]: 4.21 µM
Compound: CC(C)(Sc1ccncc1-c1ccc(C#N)c2ccccc12)C(=O)[O-].[Na+]
IC50 [1]: 12.7 µM
Activity (Mus musculus [2]): 625.24 µM
IC50 [7]: 18.7 µM
Activity (Mus musculus [8]): 2371.02 µM
IC50 at 24 h [18]: 197 µM
IC50 at 48 h [19]: 109 µM
